From ChEMBL document CHEMBL5214984, “Identification of Organic Anion Transporter 2 Inhibitors: Screening, Structure-Based Analysis, and Clinical Drug Interaction Risk Assessment” (J Med Chem, 2022) come the findings set out here.

Data set [1] can be described thus: Dissociation constant, pKa of the compound. The format is physicochemical.
The nature of data set [2]: Lipophilicity, log D of the compound. Particulars: octanol/water.
A short description of data set [3]: Inhibition of human OAT2 tv.1 variant expressed in HEK293 cells assessed as inhibition of [3H]cGMP uptake by scintillation analysis. The format is ADME, cell-based. The note with it: HEK293, 3 h.

`CCCc1nc2c(C)cc(-c3nc4ccccc4n3C)cc2n1Cc1ccc(-c2ccccc2C(=O)O)cc1` showed a pKa in data set [1] of 3.6. In data set [2], this compound showed a logD of 2.35. The IC50 in data set [3] turned out to be 13.7 µM.
Take `CNS(=O)(=O)Cc1ccc2[nH]cc(CCN(C)C)c2c1`: in data set [1], the pKa is 8.7. The same compound yielded a logD in data set [2] of -1.08.
In data set [1], `CCCCc1nc(C)c(CC(=S)N(C)C)c(=O)n1Cc1ccc(-c2ccccc2-c2nnn[nH]2)cc1` came in with a pKa of 4.2. In data set [2], this compound returned a logD of 0.91. For the same compound, in data set [3], the 50% inhibitory concentration (IC50) is 15.7 µM.
For `O=C(O)CSc1nnc(Br)n1-c1ccc(C2CC2)c2ccccc12`, in that order: 3.4, 0.46 and 11.5 µM.
Take `O=C1NC(=O)N(/N=C/c2ccc(-c3ccc([N+](=O)[O-])cc3)o2)C1O` (stereo not given): the half-inhibitory concentration (IC50) in data set [3] came out at 16 µM.
With `C[C@H]1CN(C[C@H](Cc2ccccc2)C(=O)NCC(=O)O)CC[C@@]1(C)c1cccc(O)c1` [ALVIMOPAN], the pKa in data set [1] amounted to 3.2. Besides, the logD in data set [2] was 0.65.
As for `CNn1cc(C(=O)O)c(=O)c2cc(F)c(N3CCN(C)CC3)cc21` [AMIFLOXACIN], in data set [1], the pKa came to 6.3. In addition, the logD in data set [2] is -0.08.
With `CNCC[C@@H](Oc1ccccc1C)c1ccccc1` [ATOMOXETINE], in data set [1], the pKa worked out at 9.6. In data set [2], this compound came in with a logD of 0.57.
For `O=C1CN(/N=C/c2ccc(-c3ccc([N+](=O)[O-])cc3)o2)C(=O)N1` [DANTROLENE], in data set [3], the IC50 was 16 µM.
In data set [1], `CCN(CC)C(=O)/C(C#N)=C/c1cc(O)c(O)c([N+](=O)[O-])c1` [ENTACAPONE] returned a pKa of 4.2. In data set [2], the logD came out at 0.23. For the same compound, the IC50 in data set [3] was 1.9 µM.
For `COc1ccc(Cl)cc1C(=O)NCCc1ccc(S(=O)(=O)NC(=O)NC2CCCCC2)cc1` [GLYBURIDE], in data set [2], the logD came to 2.15. The IC50 in data set [3] was 14.9 µM.
In turn, `CN(C)CCCN1c2ccccc2CCc2ccccc21` [IMIPRAMINE] had a pKa in data set [1] of 9.
In the case of `COc1ccc2c(c1)c(CC(=O)O)c(C)n2C(=O)c1ccc(Cl)cc1` [INDOMETHACIN], the logD in data set [2] worked out at 1.03. For the same compound, the IC50 in data set [3] is 2.9 µM.
In data set [1], `N=C(N)NCCCNC(=O)[C@@H]1CCCCN1C(=O)[C@@H](CC1CCCCC1)NCC(=O)O` [INOGATRAN] returned a pKa of 2.1. The logD in data set [2] came out at 0.04.
The compound `CC(C(=O)O)c1cccc(C(=O)c2ccccc2)c1` (stereo not given) [KETOPROFEN] returned a logD in data set [2] of 0.21. Besides, the IC50 in data set [3] is 14.9 µM.
On to `COc1cccc(OC)c1C(=O)N[C@@H]1C(=O)N2[C@@H]1SC(C)(C)[C@@H]2C(=O)O` [METHICILLIN], for which the pKa in data set [1] stood at 2.8. Also, the logD in data set [2] is -1.88.
For the compound `CN(C)C(=O)CCSC(SCCC(=O)O)c1cccc(/C=C/c2ccc3ccc(Cl)cc3n2)c1` (stereo not given) [MK-571], the pKa in data set [1] stood at 4.6. Moreover, the logD in data set [2] came to 2.55. In data set [3], the IC50 was 9.5 µM.
As for `CC(C)(C)NCC(O)COc1cccc2c1CC(O)C(O)C2` (stereo not given) [NADOLOL], the pKa in data set [1] turned out to be 9.3. The logD in data set [2] is -1.19.
Consider `COC(=O)C1=C(C)NC(C)=C(C(=O)OC)C1c1ccccc1[N+](=O)[O-]` [NIFEDIPINE], for which the IC50 in data set [3] stood at 6.5 µM.
`Nc1nc2[nH]cc(CCc3ccc(C(=O)N[C@@H](CCC(=O)O)C(=O)O)cc3)c2c(=O)[nH]1` [PEMETREXED]: in data set [1], the pKa was determined as 3.5. Also, in data set [2], the logD is -1.93.
For `Cc1noc(NS(=O)(=O)c2ccc(N)cc2)c1C` [SULFISOXAZOLE], in that order: 4.8 and -1.17.
For `Cc1ccc(O)c([C@H](CCN(C(C)C)C(C)C)c2ccccc2)c1` [TOLTERODINE], in that order: 9.2 and 1.82.
As for `N[C@@H]1[C@H]2CN(c3nc4c(cc3F)c(=O)c(C(=O)O)cn4-c3ccc(F)cc3F)C[C@@H]12` [TROVAFLOXACIN], the pKa in data set [1] worked out at 6. Further, the logD in data set [2] is 0.42. The half-inhibitory concentration (IC50) in data set [3] worked out at 11.5 µM.
In the case of `CN(C)CCc1c[nH]c2ccc(C[C@H]3COC(=O)N3)cc12` [ZOLMITRIPTAN], in data set [1], the pKa was determined as 8.7. The compound further came in with a log distribution coefficient (logD) in data set [2] of -0.63.

The pKa is the negative logarithm of the acid dissociation constant. A word on the logD: it is the decadic logarithm of the distribution of all forms, ionised or not, between an organic phase and buffer at a given pH. A higher logD goes with higher lipophilicity. As a reminder, the IC50 is the concentration needed to halve the response being measured.
